Measurements: patent publication US12162935B2, “Regimens, compositions and methods with capsaicin and TNF-alpha inhibitor” (priority 2018, dated 2024)

Tests used:
[1] = system: rat cochlea; experiment: Cochlear gene expression by qPCR after noise exposure; assay type: in vivo
Method: Cochleae were pared down to the bone, crushed in liquid nitrogen followed by extraction in 500 μl of TRI reagent. 0.1 ml of chloroform was added, and the tube was shaken vigorously for 15 seconds and centrifuged at 12,000×g for 15 min. RNA was extracted by washing the pellet with 0.5 ml ice-cold isopropanol followed by cold 75% treated ethanol. The ethanol was removed and the tube was air dried briefly. The RNA pellet was resuspended in nuclease free water and RNA levels were determined using optical density readings corresponding to wavelengths of 260 nm, 280 and 320 nm using a spectrophotometer (Eppendorf BioPhotometer, Hamburg, Germany).
500 ng of total RNA was converted to cDNA using iScript cDNA Synthesis Kit (Bio-Rad, Hercules, CA). The reaction mixture was set up as follows: Ing of total RNA, 4 μl of iScript reaction mix, 1 μl of iScript reverse transcriptase, nuclease free water to bring the total volume to 20 μl. The reaction mix was incubated at 25° C. for 5 min, 42° C. for 30 minutes and 85° C. for 5 minutes. This cDNA reaction mix was used for real time PCR, as described previously [Mukherjea et al., 2006]. Gene specific primer pairs were used for the various reactions and mRNA expression levels were normalized to the levels of GAPDH. The primer sets were purchased from Sigma Genosys (St. Louis, MO), and were as follows: […]

[2] = system: Wistar rats; experiment: ABR threshold shifts, noise induced hearing loss (NIHL); assay type: in vivo, rat
Method: Male Wistar rats (150-250 gm) were used for this study under an animal care protocol approved by the Laboratory and Animal Care and Use Committee (SIU School of Medicine). Pre-treatment ABRs were performed. Animals were then treated according to the experimental paradigm. Prevention strategy: consisted of administration of ETA either intra-tympanic ally (IT) (250 μg/50 μl) or subcutaneously (sc) (3 mg/kg) or PBS (IT-50 μl or sc-1 ml) either 3 days or 7 days prior to noise exposure (NE).
Animals were exposed to noise (NE), and then provided ETA treatments either IT or SC at either 2 h or 24 h post noise injury. Post treatment ABR thresholds were determined at 21 days post noise exposure and cochleae were excised for morphological, molecular and biochemical studies. Cochleae used for RNA preparations were flushed immediately with RNA later and kept in RNA later for 24 h at 4° C. Those used for immunohistochemical studies were perfused and fixed with 4% paraformaldehyde, while those used for Scanning electron microscopy (SEM) were perfused and fixed with 2.5% glutaraldehyde. Cochleae used for whole mounts were decalcified for 7-10 days in 100 mM EDTA at room temperature.
Male Wistar rats were exposed to octave band noise at 122 dB centered at 16 kHz for 1 h under isofluorane anesthesia, with the 3 inch silicon tubes attached to the high frequency transducer resting in the middle ear cavity. This exposure typically results in a 30-50 dB temporary threshold shift (measured as an immediate pre-to-post noise exposure shift in ABR thresholds) across all frequencies; with slightly more elevation at those frequencies around 16 kHz and 20-40 dB permanent threshold shift measured at 21 days post noise exposure at all frequencies. Acoustic stimuli are calibrated using a cloth model rat and a Bruel & Kjaer Pulse System with a ½ inch free-field microphone (B&K model 4191). Baseline noise levels in the test chamber (with background test noise turned off) are typically measured below 20 dB SPL in the 4-40 kHz range.
Pre-treatment ABR thresholds were determined using the high frequency Intelligent Hearing Systems (IHS) on naive rats prior to any treatment or noise exposure for each ear. Animals were tested with a stimulus intensity series that was initiated at 0 dB sound pressure level (SPL) and reached a maximum at 90 dB SPL. The stimulus intensity levels were increased in 10 dB increments, and the evoked ABR waveforms were observed on a video monitor. The auditory stimuli included tone bursts at 8, 16, and 32 kHz with a 10 msec plateau and a 1 msec rise/fall time presented at a rate of 5/sec. Threshold was defined as the lowest intensity capable of evoking a reproducible, visually detectable response with two distinct waveforms and minimum amplitude of 0.5 μV.
Preconditioning of the TRPV1 receptor in the rat cochlea by oral administration of capsaicin is shown here to protect from NIHL. Male Wistar rats weighing 200-250 gms were used. ABRs from naïve rats were recorded. Rats were then treated with oral phosphate buffered saline (PBS—1 ml) or capsaicin (1 ml of 20 mg/ml) starting 24 hrs prior to NE, on the day of NE, and 24 hrs post NE. The final ABRs were recorded 21 days post NE. Cochleae were collected for various biochemical tests and immunohistochemistry. At least 6 animals were used per treatment group. NE caused an ABR threshold shift of 21.6±1.7, 35.5±1.9 and 43.9±2.3 dB threshold shift at 8, 16 and 32 kHz respectively. Oral capsaicin treatment completely protects from NIHL (3.9±1.4, 6.1±1.8 and 8.9±2.1 dB threshold shift at 8, 16 and 32 kHz respectively), there is no significant change in ABR threshold shift compared to control. […] Statistical significance was calculated using one way ANOVA with Tukey's post-hoc analyses, p<0.05 (FIG. 16.A.).
ABR measurements were conducted in naïve male Wistar rats. […]

[3] = 25 mg ETA twice a week for 24 weeks; Matteson et al.; cited from earlier work
[4] = system: Wistar rats; experiment: Restoration of hearing after permanent threshold shifts (Example 10B); assay type: in vivo, rat; conditions: treatment after PTS at 4 weeks; oral capsaicin 5 mg/kg 3 days, ETA 1 mg/kg s.c. day 2, three weeks
Method: FIG. 23A is a schematic showing the experimental paradigm used in Example 10B. Pre-treatment baseline ABRs were performed in naïve male Wistar rats. The rats were then used either as sham controls (no noise exposure) or exposed-noise (122 dB, OBN centered at 16 kHz for 1 hour). Post noise exposure ABRs were repeated at 4 weeks to establish permanent threshold shifts (PTS). […] Final ABR threshold values were evaluated at week 9 post noise exposure.
Values shown in FIGS. 23A-23C and otherwise provided with respect to this Example 10B are expressed as the mean±SEM. Statistical significance was analyzed using the ANOVA and Tukey's host hoc analysis.

[5] = TT ETA rescue at 24 hours post NE
[6] = TT ETA rescue within 2 hours post NE
[7] = TT-ETA 250 μg/50 μl, 3 day pre-treatment, 21 days post NE
[8] = s.c. ETA rescue at 24 hours post NE
[9] = s.c. ETA rescue within 2 hours post NE
[10] = subcutaneous ETA 3 mg/kg, 3 day pre-treatment, 21 days post NE

etanercept
TRPV1, TNF-α and COX2 expression ([1]; ETA rescue by TT injection at 24 hours): unable to decrease the TRPV1, TNF-α and COX2 to basal levels | NE induced up regulation of TRPV1, TNF-α, NOX3, COX2, iNOS and Bax ([1]; pretreatment with ETA): prevents the NE induced up regulation | increase in hearing threshold (hearing loss) ([2]; ETA pre-treatment sc or TT, 3 or 7 days prior to NE (FIG. 17.A)): 5-10 dB | threshold shifts ([2]; TT ETA at 2 h post NE (FIG. 17.B)): 20-37.5 dB | ABR threshold shift at 8 kHz [2, 5]: 22.5±2.9 dB | ABR threshold shift at 16 kHz [2, 5]: 31.25±3.2 dB | ABR threshold shift at 32 kHz [2, 5]: 37.5±3.7 dB | ABR threshold shift at 8 kHz [2, 6]: 20±2.6 dB | ABR threshold shift at 16 kHz [2, 6]: 30±2.7 dB | ABR threshold shift at 32 kHz [2, 6]: 33.75±2.7 dB | ABR threshold shift at 8 kHz ([2]; TT ETA, 7 day pretreatment): 16.25±3.25 dB | ABR threshold shift at 16 kHz ([2]; TT ETA, 7 day pretreatment): 16.25±3.75 dB | ABR threshold shift at 32 kHz ([2]; TT ETA, 7 day pretreatment): 16.25±4.6 dB | ABR threshold shift at 8 kHz [2, 7]: 1.25±1.25 dB | ABR threshold shift at 16 kHz [2, 7]: 0 dB | ABR threshold shift at 32 kHz [2, 7]: 3.75±1.8 dB | Wave 1 amplitude versus sound intensity ([2]; capsaicin 5 mg/kg oral, ETA 1 mg/kg, noise exposure (FIG. 18.B)): partial restoration | ABR threshold shift at 8 kHz ([2]; s.c ETA, 7 day pretreatment): 12.5±3.6 dB | ABR threshold shift at 16 kHz ([2]; s.c ETA, 7 day pretreatment): 15±5 dB | ABR threshold shift at 32 kHz ([2]; s.c ETA, 7 day pretreatment): 16.25±5.3 dB | ABR threshold shift at 8 kHz [2, 8]: 21.25±3.9 dB | ABR threshold shift at 16 kHz [2, 8]: 22.5±4.9 dB | ABR threshold shift at 32 kHz [2, 8]: 26.25±5.6 dB | ABR threshold shift at 8 kHz [2, 9]: 9.16±2.6 dB | ABR threshold shift at 16 kHz [2, 9]: 15.8±4.5 dB | ABR threshold shift at 32 kHz [2, 9]: 20.8±6.0 dB | ABR threshold shift at 8 kHz [2, 10]: 4±1.6 dB | ABR threshold shift at 16 kHz [2, 10]: 8±2.5 dB | ABR threshold shift at 32 kHz [2, 10]: 11±18 dB | threshold shift ([2]; subcutaneous ETA at 2 h post NE (FIG. 17.B)): 10-25 dB | side effects [3]: no side effects | average hearing threshold shifts at 9 weeks [4]: 25-38 dB
